Test [1] concerns Pancreatic cancer cell line KLM-1 (MSLN+). The test can be described thus: In vitro cytotoxicity, CellTiter-Glo luminescent cell viability assay, KLM-1. The note with it: KLM-1, 72 hours treatment; read-out: Relative IC50 (nM of toxic payload/ADCs). It counts as cell-based, human. The procedure:
(§1) Pancreatic cancer cell line KLM-1 was respectively grown in RPMI 1640 Medium (ATCC modification) medium supplemented with 10% fetal bovine serum. Ovarian carcinoma cell line OVCAR-3 was grown in RPMI 1640 Medium (ATCC modification) medium supplemented with 20% fetal bovine serum. The KLM-1 & OVCAR-3 cell lines were maintained in an atmosphere of 5% CO2 in a humidified 37° C. incubator. The day before treatment, cells were collected and seeded into 96-well plates (4,000 cells per well). On the second day, cells were treated with 3-fold serial dilution concentration of toxic payloads and ADCs. Each treatment was performed in eight triplicate data points. After the treatment of 72 hours, cell viability was assessed by CellTiter-Glo® kit (Promega) according to the manufacturer's instruction. At the end of the incubation, luminescence was measured using a SpectraMax i3x Multi Mode Detection Platform (Molecular Devices). Compound cytotoxicity was evaluated in comparison to cells treated with 0.05% PBS (ADCs) or 0.05% DMSO (toxic payload). IC50 values were calculated by fitting viability data with a four-parameter logistic equation using GraphPad prism 5.0 software.
(In general: ATP-based viability assays read luminescence as a measure of living cells.)

Test [2] concerns Ovarian carcinoma cell line OVCAR-3 (MSLN+). Nature of the test: In vitro cytotoxicity, CellTiter-Glo luminescent cell viability assay, OVCAR-3. The test is classed as cell-based, human. The settings on record: read-out: Relative IC50 (nM of toxic payload/ADCs). The procedure:
as §1, with “The” for “Pancreatic cancer cell line KLM-1 was respectively grown in RPMI 1640 Medium (ATCC modification) medium supplemented with 10% fetal bovine serum. Ovarian carcinoma cell line OVCAR-3 was grown in RPMI 1640 Medium (ATCC modification) medium supplemented with 20% fetal bovine serum. The”

The next test has as its target mesothelin protein (Homo sapiens, UniProt Q13421). Nature of the test: Affinity measurements and kinetic analysis using BIAcore (SPR), mesothelin immobilised. It counts as binding. The method, then: To know the biding kinetics difference among individual antibodies, surface plasmon resonance (SPR) measurement with a BIAcore T200 (Cytiva Inc.) was used as previously described (Karlsson & Falt, (1997) J. Immunol Methods 200:121-133). Carboxymethylated dextran biosensor chips (CM5, Cytiva Inc.) were activated with N-ethyl-N′-(3-dimethylaminopropyl)-carbodiimide hydrochloride (EDC) and N-hydroxysuccinimide (NHS) according to the supplier's instructions. Mesothelin protein was diluted with 10 mM sodium acetate, pH 4.0, into 5 μg/ml before injection at a flow rate of 10 μL/minute to achieve approximately 1500 response units (RU) of coupled protein followed by the injection of 1M ethanolamine to block unreacted groups. For kinetics measurements, two-fold serial dilutions of anti-mesothelin mAb (0.3125 nM to 40 nM) were injected in HBS-EP+ Biacore running buffer provided by the manufacturer (Cytiva Inc.) at 25 degree C. at a flow rate of 30 μL/min, and binding responses on the mesothelin protein were corrected by subtraction of responses on a blank flow cell. Association rates (kon or ka) and dissociation rates (koff or kd) were calculated using a simple one-to-one Langmuir binding model with separate fittings of kon and koff was used. (Cytiva.™. Biacore Insight Evaluation Software).

Setting [3] is: BIAcore T200, 25 degree C, 1:1 Langmuir model.

The record followed here is patent publication US11998613B2, “Antibody-drug conjugates containing an anti-mesothelin antibody and uses thereof” (DEVELOPMENT CENTER FOR BIOTECHNOLOGY, priority 2020, dated 2024).

Like-named read-outs stand apart in the source and are kept apart here. Non-standard residues stand in square brackets, D forms with d. Residues, ends and D or L forms follow the SMILES beside them. *: point of attachment. Dolaproine = CO[C@@H]([C@@H]1CCCN1)[C@@H](C)C(=O)O; Dil = CC[C@H](C)[C@H](NC)[C@@H](CC(=O)O)OC; X1 = C[C@@H](N*)[C@@H](O)c1ccccc1; NMeV = CN[C@H](C(=O)O)C(C)C Bounds are passed on as bounds.

mesothelin protein, sequence (Q13421 with tags, fused parts or gaps): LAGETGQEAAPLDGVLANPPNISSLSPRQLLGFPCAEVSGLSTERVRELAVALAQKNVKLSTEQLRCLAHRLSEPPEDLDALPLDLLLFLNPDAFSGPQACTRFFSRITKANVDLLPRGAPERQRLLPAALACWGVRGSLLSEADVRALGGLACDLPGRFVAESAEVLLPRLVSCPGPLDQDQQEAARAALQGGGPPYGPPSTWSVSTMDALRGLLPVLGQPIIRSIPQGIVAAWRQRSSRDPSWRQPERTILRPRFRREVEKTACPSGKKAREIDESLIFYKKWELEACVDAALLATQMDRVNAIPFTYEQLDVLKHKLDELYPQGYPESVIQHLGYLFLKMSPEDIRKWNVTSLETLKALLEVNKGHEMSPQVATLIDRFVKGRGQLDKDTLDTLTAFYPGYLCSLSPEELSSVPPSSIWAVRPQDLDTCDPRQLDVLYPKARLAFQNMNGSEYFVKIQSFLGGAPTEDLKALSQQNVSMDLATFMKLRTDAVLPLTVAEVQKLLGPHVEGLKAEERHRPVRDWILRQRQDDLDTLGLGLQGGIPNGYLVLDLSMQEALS

Take `COc1cc2cc(c1Cl)N(C)C(=O)C[C@H](OC(=O)[C@H](C)N(C)C(=O)CCS)[C@]1(C)O[C@H]1[C@H](C)[C@@H]1C[C@@](O)(NC(=O)O1)[C@H](OC)/C=C/C=C(\C)C2` [DM1, reference compound]: the IC50 in test [1] stood at 2.1 nM; in test [2] (OVCAR-3, 72 hours treatment) it was 1.6 nM.

Take `CC[C@@]1(O)C(=O)OCc2c1cc1n(c2=O)Cc2c-1nc1cc(F)c(C)c3c1c2[C@@H](NC(=O)CO)CC3` [DXd, reference compound]: the IC50 in test [2] (OVCAR-3, 72 hours treatment) was > 100 nM.

Regarding `CC[C@@]1(O)C(=O)OCc2c1cc1n(c2=O)Cc2c-1nc1cc(F)c(C)c3c1c2[C@@H](N)CC3` [Exatecan, reference compound], in test [2] (Homo sapiens, OVCAR-3, 72 h), the IC50 was found to be 20.1 nM.

Turning to `CC[C@H](C)[C@@H]([C@@H](CC(=O)N1CCC[C@H]1[C@H](OC)[C@@H](C)C(=O)N[C@H](C)[C@@H](O)c1ccccc1)OC)N(C)C(=O)[C@@H](NC(=O)[C@@H](NC)C(C)C)C(C)C` [MMAE, monomethyl auristatin E, reference compound] (H-[NMeV]V[Dil][Dolaproine]-X1), the IC50 in test [1] turned out to be 0.3 nM; in test [2] (OVCAR-3, 72 hours treatment), 0.3 nM.

As to “SS1: mouse anti-mesothelin antibody clone SS1, SEQ ID NOs: 7 and 8, of U.S. Pat. No. 7,081,518 B1; expressed as human Fc chimera [reference compound]”, the “Rmax(RU)” value in the test with mesothelin protein (BIAcore T200) was 218.2 RU. The “ka” value in the test with mesothelin protein (setting [3]) is 3.415e+06 M⁻¹ s⁻¹. Besides, the “kd” value in the test with mesothelin protein (setting [3]) was 1.194e-05 s⁻¹; in the test with mesothelin protein (BIAcore T200, 25 degree C, 1:1 Langmuir model, listed as chimera SS1 mAb) it was 1.194e-05 s⁻¹.
